Results as given in patent publication US10947185B2, “Crystal form of dezocine and preparation method therefor” (priority 2017, dated 2021).
≈ marks a conversion by molar mass, not a printed value. Where two headings read alike, the source gives them in different places.

Legend:
[1] = Stability test: changes of related substances over 6 months; type: physicochemical
Source text: iii. Compared with the sample of crystal Form I of dezocine, the new crystal form of dezocine prepared according to the present application has better stability, and changes of the related substances within the new crystal form of dezocine over 6 months are as follows: […]

[2] = relative to Dolantin; cited from earlier work
[3] = Solubility test in 0.1 mol/L hydrochloric acid solution; type: physicochemical; details: for solubility: 50 mg sample

| SMILES | Related substances ([1]; 0 days) [%] | Related substances ([1]; 1 month) [%] | Related substances ([1]; 3 months) [%] | Related substances ([1]; 6 months) [%] | Analgesic intensity, onset time, duration of action and maximum analgesic effect, stronger than those of Dolantin [2] | Solubility increase compared with crystal Form I of dezocine [3] | solubility ([3]; simulated gastric fluid, thermodynamic from solid, read-out: Solubility) [mg/mL] | solubility [3] [mg/mL] |
| --- | --- | --- | --- | --- | --- | --- | --- | --- |
| C[C@@]12CCCCC[C@@H](Cc3ccc(O)cc31)[C@@H]2N (relative stereo) [Example 2, (−)-[5R-(5α,11α,13S*)]-13-amino-5,6,7,8,9,10,11,12-octahydro-5-methyl-5,11-methanobenzocy clodecen-3-ol] | 0.07 | 0.09 | 0.10 | 0.12 | – | – | – | – |
| C[C@@]12CCCCC[C@@H](Cc3ccc(O)cc31)[C@@H]2N (relative stereo) [Example 1, (−)-[5R-(5α,11α,13S*)]-13-amino-5,6,7,8,9,10,11,12-octahydro-5-methyl-5,11-methanobenzocy clodecen-3-ol] | 0.06 | 0.07 | 0.10 | 0.13 | – | – | – | – |
| C[C@@]12CCCCC[C@@H](Cc3ccc(O)cc31)[C@@H]2N (relative stereo) [Dezocine, (−)-[5R-(5α,11α,13S*)]-13-amino-5,6,7,8,9,10,11,12-octahydro-5-methyl-5,11-methanobenzocy clodecen-3-ol] | – | – | – | – | 5-9 times | – | – | – |
| C[C@@]12CCCCC[C@@H](Cc3ccc(O)cc31)[C@@H]2N (relative stereo) [Example 4, (−)-[5R-(5α,11α,13S*)]-13-amino-5,6,7,8,9,10,11,12-octahydro-5-methyl-5,11-methanobenzocy clodecen-3-ol] | 0.06 | 0.08 | 0.10 | 0.12 | – | – | – | – |
| C[C@@]12CCCCC[C@@H](Cc3ccc(O)cc31)[C@@H]2N (single isomer, unassigned) [Crystal Form II of dezocine, (−)-[5R-(5α,11α,13S*)]-13-amino-5,6,7,8,9,10,11,12-octahydro-5-methyl-5,11-methanobenzocy clodecen-3-ol] | – | – | – | – | – | about 32% | 33 (≈ 134 mM) | – |
| C[C@@]12CCCCC[C@@H](Cc3ccc(O)cc31)[C@@H]2N (single isomer, unassigned) [Crystal Form I of dezocine, (−)-[5R-(5α,11α,13S*)]-13-amino-5,6,7,8,9,10,11,12-octahydro-5-methyl-5,11-methanobenzocy clodecen-3-ol, reference compound] | 0.08 | 0.15 | 0.21 | 0.28 | – | – | – | 25 (≈ 102 mM) |
| C[C@@]12CCCCC[C@@H](Cc3ccc(O)cc31)[C@@H]2N (relative stereo) [Example 5, (−)-[5R-(5α,11α,13S*)]-13-amino-5,6,7,8,9,10,11,12-octahydro-5-methyl-5,11-methanobenzocy clodecen-3-ol] | 0.04 | 0.06 | 0.07 | 0.09 | – | – | – | – |
| C[C@@]12CCCCC[C@@H](Cc3ccc(O)cc31)[C@@H]2N (relative stereo) [Example 3, (−)-[5R-(5α,11α,13S*)]-13-amino-5,6,7,8,9,10,11,12-octahydro-5-methyl-5,11-methanobenzocy clodecen-3-ol] | 0.04 | 0.05 | 0.8 | 0.10 | – | – | – | – |
